Columns and labels:
[1] = test system: ERKs; test: Western blot analysis of activated site-specific phosphorylation of ERKs in passively sensitized RBL-2H3 cells after antigen stimulation; format: cell-based, rat; conditions: ten minutes after antigen stimulation
Protocol: (§1) Rat basophilic leukemia 2H3 (RBL-2H3) cells (JCRB0023 from Health Science Research Resources Bank) were seeded in a 6-well plate or a 60 mm dish (0.5×10^6 cells/ml) and sensitized with the anti-DNP-IgE antibody (1:2000) at 37° C. for 90 minutes, and then washed twice with a glucose/PIPES buffer. After the RBL-2H3 cells were incubated at 37° C. for 15 minutes in the presence of Compound A or DMSO (at a final concentration of 0.1%), DNP-BSA (at a final concentration of 3 ng/ml) was added, and further incubation was performed for 10 minutes. The cells were then washed twice with PBS on ice, the cells were harvested with a scraper in a cell extraction buffer for western blot analysis or kinase assay, and incubated on ice for 15 minutes, and centrifuged (14,500 rpm, 4° C., 15 minutes). The resulting supernatant was recovered.
(§2) Western Blot Analysis: The supernatant of the total protein extracted from the cells was separated by 10% SDS-PAGE. The proteins and phosphorylated proteins were detected by a chemiluminescence technique using an anti-PLCγ-1[pY783] phosphospecific antibody, an anti-PLCγ antibody, an anti-active JNK (pTPpY) antibody, an anti-phospho-MAPK (ERK1/2)(Thr202/[…]) antibody, an anti-phospho-p38MAPK (Thr180/Tyr182) antibody, an anti-p44/42MAP kinase antibody, and an anti-JNK antibody.

[2] = test system: JNK (JNK1 and JNK2); test: Western blot analysis of activated site-specific phosphorylation of JNK in passively sensitized RBL-2H3 cells after antigen stimulation; format: cell-based, rat
Protocol: as §1, §2

[3] = test system: TNF-α; test: Increase in the amount of TNF-α in ear tissue of IgE-passively sensitized mouse after antigen (DNFB) stimulation; format: in vivo; conditions: female BALB/c mice, p.o., eight hours after application of DNFB
Protocol: Female BALB/c mice were passively sensitized systemically by intravenous administration of 0.25 ml of a 20-fold diluted anti-DNP monoclonal antibody. On the following day, skin reactions were induced by applying 10 μl of a 0.15% dinitrofluorobenzene solution (DNFB diluted with a 4:1 mixture of acetone and olive oil) to each side of both ears of mice. Eight hours after the application of DNFB, both ears were cut off and homogenized in 400 μl of PBS using Polytron and then centrifuged (15,000 rpm, 15 minutes, 4° C.). The resulting supernatant was used as a sample. The amount of TNF-α was determined using a commercially available ELISA kit. The amount of proteins in the sample was also determined, and the amount of TNF-α was calculated per mg of protein. A preliminary test was performed in which an auricle sample was taken at certain intervals after the application of the antigen, and a time course of the amount of TNF-α was observed. The drug was orally administered one hour before the application of DNFB.

[4] = test system: p38MAPK; test: Western blot analysis of activated site-specific phosphorylation of p38MAPK in passively sensitized RBL-2H3 cells after antigen stimulation; format: cell-based, rat; conditions: ten minutes after antigen stimulation
Protocol: as §1, §2

[5] = test system: RBL-2H3 cells; test: Western blot analysis of protein expression amount in RBL-2H3 cells; format: cell-based, rat; conditions: treatment with Compound A
Protocol: as §1, §2

[6] = test system: JNK; test: JNK kinase assay on protein extract of treated RBL-2H3 cells with c-Jun(1-89) as substrate; format: cell-based, rat; conditions: 10^−5 to 10^−7 mol/l
Protocol: as §1
JNK Kinase Assay: The total protein extracted from the cells (250 μg) was incubated for 12 hours with gentle rocking with GST-c-Jun(1-89) sepharose beads (2 μg) at 4° C. After washing, a kinase buffer was used for replacement. ATP ([…]) was added to start the kinase reaction. After incubation was performed at 30° C. for 30 minutes, 10% SDS-PAGE was used for separation. The phosphorylated GST-c-Jun(1-89) was detected by a chemiluminescence technique using an anti-phospho-c-Jun antibody.

[7] = test system: PLCγ; test: Western blot analysis of activated site-specific phosphorylation of PLCγ in passively sensitized RBL-2H3 cells after antigen stimulation; format: cell-based, rat; conditions: ten minutes after antigen stimulation
Protocol: as §1, §2

[8] = test system: peritoneal mast cells; test: Antigen stimulation-induced release of TNF-α from peritoneal mast cells of passively sensitized rat; format: cell-based; conditions: 10^−9 to 10^−5 mol/l, 60 minutes preincubation, two hours after DNP-BSA
Protocol: Female Wistar rats were intraperitoneally administered 2 ml of an anti-DNP-IgE antibody (diluted 250-fold), and killed by exsanguination after 48 hours. 20 ml of a physiological mast cells medium (MCM) was injected into the abdominal cavity, and the lavage was recovered. The lavage was centrifuged at 50×g for seven minutes at 4° C. and then washed twice with MCM. Cells were suspended in 1 ml of a heparin-free MCM at a concentration of 1.25×10^5 cells/mL, and then CaCl2 was added (at a final concentration of 1 mmol/L). The resulting mixture was incubated with Compound A or DMSO (at a final concentration of 0.1%) at 37° C. for 60 minutes, and then DNP-BSA (at a final concentration of 30 ng/mL) was added, and further incubation was performed for two hours. Thereafter, the supernatant was harvested and stored at −40° C. until the amount of TNF-A was measured. The amount of TNF-α was determined using a commercially available ELISA kit.

melting point	SMILES	further results
205 °C	CCOC(=O)CNC(=O)c1cn2nc(NCCCN3CCC(OC(c4ccccc4)c4ccccc4)CC3)ccc2n1.Cl.Cl	
125 to 127 °C	CC(C)(C)c1nnc2ccc(OCCCN3CCC(OC(c4ccccc4)c4ccccc4)CC3)nn12	
181 to 185 °C	CC(C)(C(=O)O)n1nc2ccc(NCCCN3CCC(OC(c4ccccc4)c4ccccc4)CC3)nn2c1=O (hydrate or solvate)	
115 to 117 °C	CCOC(=O)C(C)(C)c1cn2nc(NCCCN3CCC(NC(c4ccccc4)c4ccccc4)CC3)ccc2n1	
129 to 133 °C	CCOC(=O)c1nnc2ccc(NCCCN3CCC(OC(c4ccccc4)c4ccccc4)CC3)nn12 (hydrate or solvate)	
162 °C	CCOC(=O)C(C)(C)n1nc2ccc(NCCCN3CCC(OC(c4ccccc4)c4ccccc4)CC3)nn2c1=O.Cl	
156 to 170 °C	O=c1[nH]nc2ccc(NCCCN3CCC(OC(c4ccccc4)c4ccccc4)CC3)nn12 (hydrate or solvate)	
136 to 138 °C	c1ccc(C(OC2CCN(CCCNc3ccc4ncnn4n3)CC2)c2ccccc2)cc1	
219 to 220 °C	Cc1c(C(C)(C)C(=O)O)nc2ccc(NCCCN3CCC(OC(c4ccccc4)c4ccccc4)CC3)nn12	
162 °C	CC(C)(C)C(=O)OCOC(=O)C(C)(C)n1nc2ccc(NCCCN3CCC(OC(c4ccccc4)c4ccccc4)CC3)nn2c1=O	
	CC(C)(C(=O)O)c1cn2nc(NCCCN3CCC(OC(c4ccccc4)c4ccccc4)CC3)ccc2n1.O.O [Compound A, 2-[6-[3-[4-(diphenylmethoxy)piperidino]propylamino]imidazo[1,2-b]pyridazin-2-yl]-2-methylpropionic acid dihydrate]	influence on activated site-specific phosphorylation of ERKs [1]: no influence; effect on specific phosphorylation of JNK (JNK1 and JNK2) ([2]; 10^−5 to 10^−7 mol/l, ten minutes after antigen stimulation): inhibited the specific phosphorylation of JNK (JNK1 and JNK2) in a dose-dependent manner; selectivity for JNK activation among cascades activated depending on IgE ([2]; versus PLCγ, ERKs, p38MAPK in RBL-2H3 cells): selectively inhibits the activation of JNK; effect on the increase in the amount of TNF-α in ear tissue ([3]; 0.1 to 10 mg/kg, one hour before DNFB): inhibited the increase in the amount of TNF-α in a dose-dependent manner; dose with significant inhibition of the increase in the amount of TNF-α ([3]; p<0.01 vs. control (Dunnett)): ≥ 1 mg/kg; influence on activated site-specific phosphorylation of p38MAPK [4]: no influence; expression amount of any other protein [5]: not influenced; JNK activity of protein extract on c-Jun(1-89) substrate [6]: inhibited depending on the concentration; influence on activated site-specific phosphorylation of PLCγ [7]: no influence; effect on antigen stimulation-induced release of TNF-α [8]: inhibited the antigen stimulation-induced release of TNF-α in a concentration-dependent manner
102 to 104 °C	O=C(O)c1nnc2ccc(NCCCN3CCC(OC(c4ccccc4)c4ccccc4)CC3)nn12 (hydrate or solvate)	
144 to 146 °C	O=C(O)/C=C/C(=O)O.c1ccc(C(OC2CCN(CCCCCCOc3ccc4nncn4n3)CC2)c2ccccc2)cc1	
124 to 127 °C	c1ccc(C(OC2CCN(CCCCCCNc3ccc4nncn4n3)CC2)c2ccccc2)cc1 (hydrate or solvate)	

SMILES	melting point	further results
CC(C)(C(=O)O)c1cn2nc(NCCCN3CCC(OC(c4ccccc4)c4ccccc4)CC3)ccc2n1.O.O (hydrate or solvate) [Compound A, 2-[6-[3-[4-(diphenylmethoxy)piperidino]propylamino]imidazo[1,2-b]pyridazin-2-yl]-2-methylpropionic acid dihydrate]	203 to 205 °C	
CC(C)(C(=O)O)c1cn2nc(NCCCN3CCC(OC(c4ccccc4)c4ccccc4)CC3)ccc2n1	205 to 206 °C	
